The source of these data is patent US7439243B2, “Piperazinyl-quinoline derivatives useful for the treatment of CNS disorders” (Glaxo Group Limited, priority 2003, dated 2008).

Structures are written as SMILES. pKi: −log10 of the molar value. Structures can show the parent of a compound that is named as a salt. Where two headings read alike, the source gives them in different places.

For the assay, the target named is human cloned 5-HT6 receptors (Homo sapiens, UniProt P50406). The experiment in a line: 5-HT6 receptor affinity (procedures outlined in WO98/27081). It counts as binding. An excerpt: Compounds can be tested following the procedures outlined in WO98/27081.
human cloned 5-HT6 receptors, sequence (P50406 whole entry): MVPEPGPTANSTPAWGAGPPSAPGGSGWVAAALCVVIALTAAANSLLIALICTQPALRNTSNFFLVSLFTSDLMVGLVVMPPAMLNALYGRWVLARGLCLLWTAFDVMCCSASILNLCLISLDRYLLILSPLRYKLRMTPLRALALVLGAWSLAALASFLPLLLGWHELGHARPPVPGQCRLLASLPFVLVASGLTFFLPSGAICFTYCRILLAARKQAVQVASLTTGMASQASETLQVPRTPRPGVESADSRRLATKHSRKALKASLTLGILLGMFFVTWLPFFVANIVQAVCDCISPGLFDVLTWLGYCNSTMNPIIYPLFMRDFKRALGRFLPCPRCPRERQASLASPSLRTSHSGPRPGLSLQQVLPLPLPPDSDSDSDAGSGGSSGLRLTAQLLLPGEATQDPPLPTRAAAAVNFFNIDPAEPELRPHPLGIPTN

As to `Clc1cccc(Cc2cnc3c(N4CCNCC4)cccc3c2)c1` [Example E1, 3-[(3-Chlorophenyl)methyl]-8-(1-piperazinyl)quinoline hydrochloride], the pKi (in general, the negative decadic logarithm of the Ki, by convention in mol/L) is greater than 7.50. For the molecule `O=C(c1cccc(Cl)c1)c1cnc2c(N3CCNCC3)cccc2c1` [Example E2, (3-Chlorophenyl)[8-(1-piperazinyl)-3-quinolinyl]methanone hydrochloride], where the note is “human cloned 5-HT6 receptors, read-out: pKi (converted)”, the Ki is less than 31.6 nM.
